Tested on: Hela and human epithelial kidney 293 cells
Experiment: Geldanamycin treatment of cells, immunofluorescence staining with anti-α-tubulin, anti-γ-tubulin and anti-Hsp90 antibodies
Type: cell-based
Conditions: 1 μg/ml geldanamycin
Experimental: Geldanamycin specifically interferes with the function of Hsp90 by binding to the ATP binding site of Hsp90 (Prodromou et al., 1997, Cell 90:65-75; Stebbins et al., 1997, Cell 89:239-250). Hela and human epithelial kidney 293 cells were treated with 1 μg/ml geldanamycin for times ranging from […] (15 minutes, 30 minutes, 1 hour, 5 hours, 15 hours, 20 hours and 30 hours) and were stained with anti-α-tubulin, anti-γ-tubulin and anti-Hsp90 antibodies. […] However, aberrant mitotic spindles were detected from as early as 1 hour of treatment with geldanamycin. More than 50% of the mitotic figures produced in the presence of the drug after 20 hours of treatment contained aberrant mitotic figures in which the centrosomes, the spindles, and the distribution of chromatin were severely disrupted. […] The spindles of these cells were rather asymmetric, with unequal amounts of microtubules in each hemi-spindle and spindle poles very often detached from the centrosome. The aster microtubules which are organized around the centrosome were also abnormal in number and distribution. […] About 50% of the cells contained misaligned chromosomes. Thus, while the centrosome and the cytoskeleton of interphase cells were insensitive to geldanamycin, mitotic centrosomes cannot be properly formed in the presence of geldanamycin. […] Therefore, notwithstanding the possible contribution of other non-centrosomal functions of Hsp90 to some of these phenotypes, it is clear that the inhibition of the function of Hsp90 results in abnormalities in centrosome structure.

## COC1=C2C[C@@H](C)C[C@H](OC)[C@H](O)[C@@H](C)/C=C(\C)[C@H](OC(N)=O)[C@@H](OC)/C=C\C=C(/C)C(=O)NC(=CC1=O)C2=O [geldanamycin]
  cells containing misaligned chromosomes: About 50%
  earliest treatment time at which aberrant mitotic spindles were detected: 1 h
After 20 hours of treatment
  mitotic figures that were aberrant (centrosomes, spindles and distribution of chromatin severely disrupted): More than 50%

— patent US6335157B1, “Method based on localization of Hsp90 to the centrosome” (The European Molecular Biology Laboratory, priority 1999, dated 2002)
